Test results as given in patent publication US20230085307A1, “PYRIDAZINONE COMPOUND AND HERBICIDE” (NISSAN CHEMICAL CORPORATION, priority 2019, published 2023).

What was measured:
[1] = tested on: lambsquarters; test: Test Example 5: herbicidal effect by foliage application, plastic box (Table 20, symbol O); assay type: in vivo, lambsquarters (Chenopodium album); details: foliage application, AAH 80 g/ha, three weeks after application
Procedure, shortened: (§1)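 Plants sown in sterilized diluvial soil and grown 14 days in a greenhouse at 25° C to 30° C, then sprayed on the foliage with the compound's emulsion diluted in water to a predetermined herbicide amount. Injury to weeds and crops scored three weeks after application on a visual rating scale.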

[2] = tested on: redroot pigweed; test: Test Example 4: herbicidal effect by soil treatment (Table 19, symbol N); assay type: in vivo, redroot pigweed (Amaranthus retroflexus); details: AAH 80 g/ha
Procedure, shortened: (§2)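 Three weeks of greenhouse growth at 25° C. to 30° C. followed a uniform surface spray of water-diluted emulsion at a predetermined herbicide amount. Seeds had been sown beforehand under about 1.5 cm of sterilized diluvial soil. Grading followed criteria set out in an earlier test.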

[3] = tested on: wild oat; test: Test Example 4: herbicidal effect by soil treatment (Table 19, symbol I); assay type: in vivo, wild oat (Avena fatua); details: AAH 80 g/ha
Procedure, shortened: as §2

[4] = tested on: windgrass; test: Test Example 4: herbicidal effect by soil treatment (Table 19, symbol L); assay type: in vivo, windgrass (Apera spica-venti); details: AAH 80 g/ha
Procedure, shortened: as §2

[5] = tested on: green foxtail; test: Test Example 5: herbicidal effect by foliage application, plastic box (Table 20, symbol G); assay type: in vivo, green foxtail (Setaria viridis); details: foliage application, AAH 80 g/ha, three weeks after application
Procedure, shortened: as §1

[6] = tested on: southern crabgrass; test: Test Example 5: herbicidal effect by foliage application, plastic box (Table 20, symbol F); assay type: in vivo, southern crabgrass (Digitaria ciliaris); details: foliage application, AAH 80 g/ha, three weeks after application
Procedure, shortened: as §1

[7] = tested on: windgrass; test: Test Example 5: herbicidal effect by foliage application, plastic box (Table 20, symbol L); assay type: in vivo, windgrass (Apera spica-venti); details: foliage application, AAH 80 g/ha, three weeks after application
Procedure, shortened: as §1

[8] = tested on: Chinese sprangletop; test: Test Example 3: herbicidal effect by foliage application, Wagner pot (Table 18, symbol D); assay type: in vivo, chinese sprangletop (Leptochloa chinensis); details: 80 g/ha
Procedure, shortened: (§3)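 Plants were sown in alluvial soil held under 0.1–0.5 cm standing water and grown 14 days in a greenhouse at 25–30 °C. An emulsifiable formulation, water-diluted to the set dose, was then sprayed onto the foliage, and effects were scored three weeks later using previously defined criteria.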

[9] = tested on: velvetleaf; test: Test Example 5: herbicidal effect by foliage application, plastic box (Table 20, symbol M); assay type: in vivo, velvetleaf (Abutilon theophrasti); details: foliage application, AAH 80 g/ha, three weeks after application
Procedure, shortened: as §1

[10] = tested on: rice flat sedge; test: Test Example 3: herbicidal effect by foliage application, Wagner pot (Table 18, symbol E); assay type: in vivo, rice flat sedge (Cyperus iria); details: 80 g/ha
Procedure, shortened: as §3

[11] = tested on: Italian ryegrass; test: Test Example 4: herbicidal effect by soil treatment (Table 19, symbol K); assay type: in vivo, Italian ryegrass (Lolium multiflorum); details: AAH 80 g/ha
Procedure, shortened: as §2

[12] = tested on: redroot pigweed; test: Test Example 5: herbicidal effect by foliage application, plastic box (Table 20, symbol N); assay type: in vivo, redroot pigweed (Amaranthus retroflexus); details: foliage application, AAH 80 g/ha, three weeks after application
Procedure, shortened: as §1

[13] = tested on: chickweed; test: Test Example 4: herbicidal effect by soil treatment (Table 19, symbol P); assay type: in vivo, common chickweed (Stellaria media); details: AAH 80 g/ha
Procedure, shortened: as §2

[14] = tested on: chickweed; test: Test Example 5: herbicidal effect by foliage application, plastic box (Table 20, symbol P); assay type: in vivo, common chickweed (Stellaria media); details: foliage application, AAH 80 g/ha, three weeks after application
Procedure, shortened: as §1

[15] = tested on: lambsquarters; test: Test Example 4: herbicidal effect by soil treatment (Table 19, symbol O); assay type: in vivo, lambsquarters (Chenopodium album); details: AAH 80 g/ha
Procedure, shortened: as §2

[16] = tested on: persian speedwell; test: Test Example 5: herbicidal effect by foliage application, plastic box (Table 20, symbol R); assay type: in vivo, Persian speedwell (Veronica persica); details: foliage application, AAH 80 g/ha, three weeks after application
Procedure, shortened: as §1

[17] = tested on: persian speedwell; test: Test Example 4: herbicidal effect by soil treatment (Table 19, symbol R); assay type: in vivo, Persian speedwell (Veronica persica); details: AAH 80 g/ha
Procedure, shortened: as §2

[18] = tested on: barnyard grass; test: Test Example 4: herbicidal effect by soil treatment (Table 19, symbol H); assay type: in vivo, barnyard grass (Echinochloa crus-galli); details: AAH 80 g/ha
Procedure, shortened: as §2

[19] = tested on: blackgrass; test: Test Example 5: herbicidal effect by foliage application, plastic box (Table 20, symbol J); assay type: in vivo, blackgrass (Alopecurus myosuroides); details: foliage application, AAH 80 g/ha, three weeks after application
Procedure, shortened: as §1

[20] = tested on: southern crabgrass; test: Test Example 4: herbicidal effect by soil treatment (Table 19, symbol F); assay type: in vivo, southern crabgrass (Digitaria ciliaris); details: AAH 80 g/ha
Procedure, shortened: as §2

[21] = tested on: green foxtail; test: Test Example 4: herbicidal effect by soil treatment (Table 19, symbol G); assay type: in vivo, green foxtail (Setaria viridis); details: AAH 80 g/ha
Procedure, shortened: as §2

[22] = tested on: blackgrass; test: Test Example 4: herbicidal effect by soil treatment (Table 19, symbol J); assay type: in vivo, blackgrass (Alopecurus myosuroides); details: AAH 80 g/ha
Procedure, shortened: as §2

[23] = tested on: barnyard grass; test: Test Example 5: herbicidal effect by foliage application, plastic box (Table 20, symbol H); assay type: in vivo, barnyard grass (Echinochloa crus-galli); details: foliage application, AAH 80 g/ha, three weeks after application
Procedure, shortened: as §1

[24] = tested on: barnyard grass; test: Test Example 3: herbicidal effect by foliage application, Wagner pot (Table 18, symbol H); assay type: in vivo, barnyard grass (Echinochloa crus-galli); details: 80 g/ha
Procedure, shortened: as §3

[25] = tested on: wild oat; test: Test Example 5: herbicidal effect by foliage application, plastic box (Table 20, symbol I); assay type: in vivo, wild oat (Avena fatua); details: foliage application, AAH 80 g/ha, three weeks after application
Procedure, shortened: as §1

[26] = tested on: velvetleaf; test: Test Example 4: herbicidal effect by soil treatment (Table 19, symbol M); assay type: in vivo, velvetleaf (Abutilon theophrasti); details: AAH 80 g/ha
Procedure, shortened: as §2

[27] = tested on: Italian ryegrass; test: Test Example 5: herbicidal effect by foliage application, plastic box (Table 20, symbol K); assay type: in vivo, Italian ryegrass (Lolium multiflorum); details: foliage application, AAH 80 g/ha, three weeks after application
Procedure, shortened: as §1

| Structure (SMILES) | O: lambsquarters, herbicidal effect [1] | N: redroot pigweed, herbicidal effect rating [2] | I: wild oat, herbicidal effect rating [3] | L: windgrass, herbicidal effect rating [4] | G: green foxtail, herbicidal effect [5] | F: southern crabgrass, herbicidal effect [6] | L: windgrass, herbicidal effect [7] | herbicidal effect on D (Chinese sprangletop), rating 0-5 [8] | M: velvetleaf, herbicidal effect [9] | herbicidal effect on E (rice flat sedge), rating 0-5 [10] | K: Italian ryegrass, herbicidal effect rating [11] | N: redroot pigweed, herbicidal effect [12] | P: chickweed, herbicidal effect rating [13] | P: chickweed, herbicidal effect [14] | O: lambsquarters, herbicidal effect rating [15] | R: persian speedwell, herbicidal effect [16] | R: persian speedwell, herbicidal effect rating [17] | H: barnyard grass, herbicidal effect rating [18] | J: blackgrass, herbicidal effect [19] | F: southern crabgrass, herbicidal effect rating [20] | also measured |
| --- | --- | --- | --- | --- | --- | --- | --- | --- | --- | --- | --- | --- | --- | --- | --- | --- | --- | --- | --- | --- | --- |
| COc1nn(C)c(=O)c(-c2c(-c3ccc(OC(F)(F)F)cc3)sc3ccccc23)c1O [1-162] | 3 (Herbicidal rate of 40% or more and less than 70%) | 1 (Herbicidal rate of 5% or more and less than 20%) | 0 (Herbicidal rate of 5% or less (almost no effect)) | 0 (Herbicidal rate of 5% or less (almost no effect)) | 0 (Herbicidal rate of 5% or less (almost no effect)) | 0 (Herbicidal rate of 5% or less (almost no effect)) | 0 (Herbicidal rate of 5% or less (almost no effect)) | 3 (Herbicidal rate of 40% or more and less than 70%) | 3 (Herbicidal rate of 40% or more and less than 70%) | 5 (Herbicidal rate of 90% or more (almost completely withered)) | 0 (Herbicidal rate of 5% or less (almost no effect)) | 4 (Herbicidal rate of 70% or more and less than 90%) | 2 (Herbicidal rate of 20% or more and less than 40%) | 5 (Herbicidal rate of 90% or more (almost completely withered)) | 4 (Herbicidal rate of 70% or more and less than 90%) | 5 (Herbicidal rate of 90% or more (almost completely withered)) | 0 (Herbicidal rate of 5% or less (almost no effect)) | 0 (Herbicidal rate of 5% or less (almost no effect)) | 0 (Herbicidal rate of 5% or less (almost no effect)) | 0 (Herbicidal rate of 5% or less (almost no effect)) | G: green foxtail, herbicidal effect rating [21]: 0 (Herbicidal rate of 5% or less (almost no effect)); J: blackgrass, herbicidal effect rating [22]: 0 (Herbicidal rate of 5% or less (almost no effect)); H: barnyard grass, herbicidal effect [23]: 0 (Herbicidal rate of 5% or less (almost no effect)); herbicidal effect on H (barnyard grass), rating 0-5 [24]: 4 (Herbicidal rate of 70% or more and less than 90%); I: wild oat, herbicidal effect [25]: 0 (Herbicidal rate of 5% or less (almost no effect)); M: velvetleaf, herbicidal effect rating [26]: 0 (Herbicidal rate of 5% or less (almost no effect)); K: Italian ryegrass, herbicidal effect [27]: 0 (Herbicidal rate of 5% or less (almost no effect)) |
| COc1nn(C)c(=O)c(-c2c(-c3ccc(-c4ccccc4)cc3)sc3ccccc23)c1O [1-166] | 2 (Herbicidal rate of 20% or more and less than 40%) | 0 (Herbicidal rate of 5% or less (almost no effect)) | 0 (Herbicidal rate of 5% or less (almost no effect)) | 0 (Herbicidal rate of 5% or less (almost no effect)) | 0 (Herbicidal rate of 5% or less (almost no effect)) | 0 (Herbicidal rate of 5% or less (almost no effect)) | 0 (Herbicidal rate of 5% or less (almost no effect)) | 4 (Herbicidal rate of 70% or more and less than 90%) | 0 (Herbicidal rate of 5% or less (almost no effect)) | 5 (Herbicidal rate of 90% or more (almost completely withered)) | 0 (Herbicidal rate of 5% or less (almost no effect)) | 3 (Herbicidal rate of 40% or more and less than 70%) | 4 (Herbicidal rate of 70% or more and less than 90%) | 3 (Herbicidal rate of 40% or more and less than 70%) | 0 (Herbicidal rate of 5% or less (almost no effect)) | 5 (Herbicidal rate of 90% or more (almost completely withered)) | 1 (Herbicidal rate of 5% or more and less than 20%) | 0 (Herbicidal rate of 5% or less (almost no effect)) | 0 (Herbicidal rate of 5% or less (almost no effect)) | 0 (Herbicidal rate of 5% or less (almost no effect)) | G: green foxtail, herbicidal effect rating [21]: 0 (Herbicidal rate of 5% or less (almost no effect)); J: blackgrass, herbicidal effect rating [22]: 0 (Herbicidal rate of 5% or less (almost no effect)); H: barnyard grass, herbicidal effect [23]: 0 (Herbicidal rate of 5% or less (almost no effect)); herbicidal effect on H (barnyard grass), rating 0-5 [24]: 4 (Herbicidal rate of 70% or more and less than 90%); I: wild oat, herbicidal effect [25]: 0 (Herbicidal rate of 5% or less (almost no effect)); M: velvetleaf, herbicidal effect rating [26]: 0 (Herbicidal rate of 5% or less (almost no effect)); K: Italian ryegrass, herbicidal effect [27]: 0 (Herbicidal rate of 5% or less (almost no effect)) |
